This is an account of results in paper PMC6977399 (Clinical Pharmacology and Therapeutics, 2019).

Each structure is given as a SMILES string. Like-named read-outs stand apart in the source and are kept apart here.

Data set [1] is described as follows: Literature estimates of intestinal availability. Also noted: species or system human. The following applies: translated from FaFg 0.28.
In data set [2] the test system is BCRP and OATP1B. Description: Clinical DDI study part 2: effect of fenebrutinib on PK of rosuvastatin. As to conditions: both, human, plasma, oral.
Test in data set [3]: as above
The following applies: both, human, plasma, oral, 20 mg.

For data set [4], the system named is OATP1B and BCRP. As to conditions: clinical DDI study; cited from earlier work.
For data set [5] the following is noted: cited from earlier work.
Data set [6] has as its system CYP3A. As to conditions: in the presence of fluconazole and voriconazole; cited from earlier work.
For data set [7] the following is noted: both, human, plasma, oral, 2 mg.
Data set [8] has as its system CYP3A.
The mark [9] stands for this setting: MDZ coadministered with fenebrutinib 200 mg b.i.d. vs MDZ alone.
The mark [10] stands for this setting: both, human, plasma, oral, 2 mg.

In general, half-life refers to how long it takes for the measured level to halve. High values mean slow loss, low ones fast loss. For `CC(C)c1nc(N(C)S(C)(=O)=O)nc(-c2ccc(F)cc2)c1/C=C/[C@@H](O)C[C@@H](O)CC(=O)O` [Rosuvastatin, rosuvastatin], in data set [1], the “maximum AUC increase if FaFg increased to 1 with intestinal BCRP inhibition” value is reported as 3.6 fold. In data set [2], this molecule showed a half-life of 18.2 h. The same molecule had an AUC(0-t) in data set [2] (20 mg) of 91 ng·h/mL. In data set [3], this molecule showed an AUC(0-inf) of 93 ng·h/mL, a Cmax of 9.08 ng/mL and a half-life of 19.9 h. Further, the “exposure increase in the presence of eltrombopag” value in data set [4] is 55%. For the same molecule, in data set [5] (estimated, ref Tanaka et al.23), the FaFg was 0.28.

Regarding `OCc1ncc2n1-c1ccc(Cl)cc1C(c1ccccc1F)=NC2` [1′‐hydroxymidazolam], the “exposure increase in the presence of other CYP3A inhibitors” value in data set [6] is ~ 1.5 fold.

With `Cc1ncc2n1-c1ccc(Cl)cc1C(c1ccccc1F)=NC2` [MDZ, midazolam], the “intestinal availability (FaFg)” value in data set [5] is 48%. In data set [7], this molecule had a Cmax of 8.54 ng/mL and a half-life of 6.23 h. In data set [8] (setting [9]), the “AUC0−t, fold higher with fenebrutinib vs alone” value is on record as ~ 1.99 fold and the “Cmax, fold higher with fenebrutinib vs alone” value is on record as ~ 1.74 fold. Also, the half-life in data set [8] (both, human, plasma, oral) is 6.68 h. In addition, in data set [8] (setting [10]), the AUC(0-inf) stood at 20.5 ng·h/mL and the AUC(0-t) came to 19.2 ng·h/mL.
